Experimental data: patent publication EP0745595A1, “3-(3-Aryloxyphenyl)-1-(substituted methyl)-s-triazine-2,4,6-oxo or thiotrione herbicidal agents” (American Cyanamid Company, priority 1995, dated 1996)

Tests used:
Type in all cases: in vivo
CHENOPODIUM ALBUM, L. [1] = experiment: Postemergence herbicidal evaluation, CHEAL (Lambsquarters, Common)
Procedure: (§1) In the tests, seedling plants are grown in jiffy flats for about two weeks. The test compounds are dispersed in 50/50 acetone/water mixtures containing 0.5% TWEEN®20, a polyoxyethylene sorbitan monolaurate surfactant of Atlas Chemical Industries, […] to the plants through a spray nozzle operating at 40 psi for a predetermined time. After spraying, the plants are placed on greenhouse benches and are cared for in the usual manner, commensurate with conventional greenhouse practices. From four to five weeks after treatment, the seedling plants are examined and rated according to the rating system set forth below. Where more than one test is involved for a given compound, the data are averaged.
(§2) Plant species employed in these evaluations are reported by header abbreviation, common name and scientific name.
(§3) Results of herbicide evaluation are expressed on a rating scale (0-9). The scale is based upon a visual observation of plant stand, vigor, malformation, size, chlorosis and overall plant appearance as compared with a control.

IPOMOEA SPP. = experiment: Postemergence herbicidal evaluation, IPOSS (Morningglory spp.)
Procedure: as §1, §2, §3

[2] = tested on: ECHINOCHLOA CRUS-GALLI, (L) BEAU; experiment: Postemergence herbicidal evaluation, ECHCG (Barnyardgrass); set-up: key to ECHCG rating / Herbicidal effect rating, ECHCG / ECHCG: 0-9 visual rating scale vs untreated control
Procedure: (§4) In the tests, seedling plants are grown in jiffy flats for about two weeks. The test compounds are dispersed in 50/50 acetone/water mixtures containing 0.5% TWEEN®20, a polyoxyethylene sorbitan monolaurate surfactant of Atlas Chemical Industries, in sufficient quantities to provide the equivalent of about 0.125 kg to 0.500 kg per hectare of active compound when applied to the plants through a spray nozzle operating at 40 psi for a predetermined time. After spraying, the plants are placed on greenhouse benches and are cared for in the usual manner, commensurate with conventional greenhouse practices. From four to five weeks after treatment, the seedling plants are examined and rated according to the rating system set forth below. Where more than one test is involved for a given compound, the data are averaged.
as §2, §3

ZEA MAYS L. = experiment: Postemergence herbicidal evaluation, ZEAMX (Corn, Field)
Procedure: as §1, §2, §3

[3] = tested on: ABUTILON THEOPHRASTI, MEDIC.; experiment: Postemergence herbicidal evaluation, ABUTH (Velvetleaf)
Procedure: as §1, §2, §3

[4] = tested on: SETARIA VIRIDIS, (L) BEAU; experiment: Postemergence herbicidal evaluation, SETVI (Foxtail, Green); set-up: key to SETVI rating / Herbicidal effect rating, SETVI / SETVI: 0-9 visual rating scale vs untreated control
Procedure: as §4, §2, §3

CHENOPODIUM ALBUM, L. [5] = experiment: Preemergence herbicidal evaluation, CHEAL (Lambsquarters, Common);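 note: higher means more injury with 8 approaching complete kill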
Text: as §3
The preemergence herbicidal activity of the test compounds of the present invention is exemplified by the following tests in which the seeds of a variety of monocotyledonous and dicotyledonous plants are separately mixed with potting soil and planted on top of approximately one inch of soil in separate pint cups. […] The treated cups are then placed on greenhouse benches, watered and cared for in accordance with conventional greenhouse procedures. From four to five weeks after treatment, the tests are terminated and each cup is examined and rated according to the rating system provided in Example 40.
The compounds evaluated are reported by compound number given in Example 40.

[6] = tested on: AMBROSIA ARTEMISIIFOLIA, L.; experiment: Postemergence herbicidal evaluation, AMBEL (Ragweed, Common)
Procedure: as §1, §2, §3

[7] = tested on: GLYCINE MAX(L) MERR. CV. WILLIAMS; experiment: Postemergence herbicidal evaluation, GLXMAW (Soybean, Williams); set-up: key to GLXMAW rating / Herbicidal effect rating, GLXMAW / GLXMAW: 0-9 visual rating scale vs untreated control
Procedure: as §4, §2, §3

Cn1c(=O)[nH]c(=O)n(-c2cc(Oc3c(F)cc(C(F)(F)F)cc3Cl)ccc2Br)c1=O [A, reference compound]
Herbicidal effect rating, CHEAL (CHENOPODIUM ALBUM, L. [1]; 0.063 kg/ha): 9.0 | Herbicidal effect rating, CHEAL (CHENOPODIUM ALBUM, L. [1]; 0.125 kg/ha): 9.0 | Herbicidal effect rating, CHEAL (CHENOPODIUM ALBUM, L. [1]; 0.250 kg/ha): 9.0 | Herbicidal effect rating, CHEAL (CHENOPODIUM ALBUM, L. [1]; 0.500 kg/ha): 9.0 | Herbicidal effect rating, IPOSS (IPOMOEA SPP.; 0.063 kg/ha): 6.0 | Herbicidal effect rating, IPOSS (IPOMOEA SPP.; 0.125 kg/ha): 7.0 | Herbicidal effect rating, IPOSS (IPOMOEA SPP.; 0.250 kg/ha): 9.0 | Herbicidal effect rating, IPOSS (IPOMOEA SPP.; 0.500 kg/ha): 9.0 | Herbicidal effect rating, ECHCG ([2]; 0.063 kg/ha): 0.0 | Herbicidal effect rating, ECHCG ([2]; 0.125 kg/ha): 0.0 | Herbicidal effect rating, ECHCG ([2]; 0.250 kg/ha): 2.0 | Herbicidal effect rating, ECHCG ([2]; 0.500 kg/ha): 2.0 | Herbicidal effect rating, ZEAMX (ZEA MAYS L.; 0.063 kg/ha): 0.0 | Herbicidal effect rating, ZEAMX (ZEA MAYS L.; 0.125 kg/ha): 0.0 | Herbicidal effect rating, ZEAMX (ZEA MAYS L.; 0.250 kg/ha): 0.0 | Herbicidal effect rating, ZEAMX (ZEA MAYS L.; 0.500 kg/ha): 2.0 | Herbicidal effect rating, ABUTH ([3]; 0.063 kg/ha): 5.0 | Herbicidal effect rating, ABUTH ([3]; 0.125 kg/ha): 6.0 | Herbicidal effect rating, ABUTH ([3]; 0.250 kg/ha): 6.0 | Herbicidal effect rating, ABUTH ([3]; 0.500 kg/ha): 9.0 | Herbicidal effect rating, SETVI ([4]; 0.063 kg/ha): 0.0 | Herbicidal effect rating, SETVI ([4]; 0.125 kg/ha): 2.0 | Herbicidal effect rating, SETVI ([4]; 0.250 kg/ha): 2.0 | Herbicidal effect rating, SETVI ([4]; 0.500 kg/ha): 5.0 | CHEAL (CHENOPODIUM ALBUM, L. [5]; Rate 0.063 kg/ha): 9.0 | CHEAL (CHENOPODIUM ALBUM, L. [5]; Rate 0.125 kg/ha): 9.0 | CHEAL (CHENOPODIUM ALBUM, L. [5]; Rate 0.250 kg/ha): 9.0 | CHEAL (CHENOPODIUM ALBUM, L. [5]; Rate 0.500 kg/ha): 9.0 | Herbicidal effect rating, AMBEL ([6]; 0.063 kg/ha): 1.0 | Herbicidal effect rating, AMBEL ([6]; 0.125 kg/ha): 2.0 | Herbicidal effect rating, AMBEL ([6]; 0.500 kg/ha): 5.0 | Herbicidal effect rating, GLXMAW ([7]; 0.063 kg/ha): 2.0 | Herbicidal effect rating, GLXMAW ([7]; 0.125 kg/ha): 3.0 | Herbicidal effect rating, GLXMAW ([7]; 0.250 kg/ha): 3.0 | Herbicidal effect rating, GLXMAW ([7]; 0.500 kg/ha): 5.0
